# Patent US20130149395A1, “Pharmaceutical Product, Method of Production and Method of Application of the Pharmaceutical Product” (priority 2010, published 2013)
# Experiment: Stability of 2,2-dichloropropionic acid during prolonged storage (NMR impurity identification)
# Type: physicochemical
# Conditions: transforms into pyroracemic acid or alpha chloroacrylic acid
# Text: The impurity identification of 2,2-dichloropropionic acid, taken as an example, has been conducted using the method of NMR spectroscopy on the ^1H and ^13C nuclei, one of the most informative methods, which allows to determine the composition of each impurity even if the numerous related compounds are found in the sample.
smiles,measurement,value
"CC(Cl)(Cl)C(=O)O [2,2-dichloropropionic acid]",Stability to daylight and prolonged storage,daylight-sensitive
